From patent publication US12252524B2, “GIP/GLP1 co-agonist compounds” (Eli Lilly and Company, priority 2018, dated 2025)
Each block holds one compound with its values, some of them ahead of it. Numbered stars: 1 amine (or outer) side, 2 acyl side, 3 side chain; on linkers, the order of the positions; unused ones are H or OH. Square brackets hold non-standard residues; d marks the D form. Side chains are listed from the residue outwards. Peptide text beside a SMILES is read from it. * marks the point of attachment. Ala(1H-tetrazol-5-yl) = N[C@@H](Cc1nnn[nH]1)C(=O)O; C20 diacid = O=C(O)CCCCCCCCCCCCCCCCCCC(=O)*; αMePhe(2-F) = C[C@](N)(Cc1ccccc1F)C(=O)O; γGlu = O=C(O)[C@H](CCC(=O)[*:2])N[*:1]; αMeF = C[C@](N)(Cc1ccccc1)C(=O)O; 2Pal = N[C@@H](Cc1ccccn1)C(=O)O; αMeL = CC(C)C[C@](C)(N)C(=O)O; AEEA = NCCOCCOCC(=O)O; Aib = CC(C)(N)C(=O)O

Experiments:
[1] = molecular target: T1, gastric inhibitory peptide receptor (GIPR) (Homo sapiens, UniProt P48546); experiment: cAMP pharmacological functional assay in presence of casein, hGIPR; type: cell-based; conditions: HEK293 cells expressing hGIPR, 0.1% Casein, geometric mean; read-out: hGIPR cAMP Rel EC50 nM (SEM, n)
T1 sequence (P48546 22-466): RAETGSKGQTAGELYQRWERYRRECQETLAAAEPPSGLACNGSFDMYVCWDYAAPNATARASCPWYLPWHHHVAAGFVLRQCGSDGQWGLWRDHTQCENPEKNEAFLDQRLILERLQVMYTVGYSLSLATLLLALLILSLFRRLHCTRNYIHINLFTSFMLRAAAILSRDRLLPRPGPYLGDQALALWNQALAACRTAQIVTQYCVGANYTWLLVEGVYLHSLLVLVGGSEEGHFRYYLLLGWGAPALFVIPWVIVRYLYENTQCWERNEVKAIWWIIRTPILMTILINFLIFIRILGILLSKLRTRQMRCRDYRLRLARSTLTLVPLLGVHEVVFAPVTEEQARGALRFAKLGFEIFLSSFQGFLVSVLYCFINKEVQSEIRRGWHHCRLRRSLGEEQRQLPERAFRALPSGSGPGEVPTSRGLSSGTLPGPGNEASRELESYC

[2] = molecular target: human GLP-1 receptor (GLP-1R) (Homo sapiens, UniProt P43220); experiment: cAMP pharmacological functional assay in presence of casein, hGLP-1R; type: cell-based; conditions: HEK293 cells expressing hGLP-1R, 0.1% Casein, geometric mean; read-out: hGLP1R cAMP Rel EC50 nM (SEM, n)
Sequence of human GLP-1 receptor (GLP-1R) (P43220 24-463): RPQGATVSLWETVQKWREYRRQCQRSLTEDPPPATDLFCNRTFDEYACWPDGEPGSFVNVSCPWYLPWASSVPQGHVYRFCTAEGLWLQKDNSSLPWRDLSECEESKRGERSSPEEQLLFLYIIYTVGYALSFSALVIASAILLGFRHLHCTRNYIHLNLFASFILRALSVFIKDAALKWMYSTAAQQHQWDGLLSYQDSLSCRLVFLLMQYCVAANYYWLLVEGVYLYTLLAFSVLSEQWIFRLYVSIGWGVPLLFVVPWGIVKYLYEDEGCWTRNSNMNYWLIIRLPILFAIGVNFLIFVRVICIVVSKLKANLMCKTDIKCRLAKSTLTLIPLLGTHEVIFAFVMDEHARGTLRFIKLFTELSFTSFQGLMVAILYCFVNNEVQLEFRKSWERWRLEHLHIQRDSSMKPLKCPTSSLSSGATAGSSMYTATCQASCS

Structure (SMILES): CC[C@H](C)[C@H](NC(=O)[C@H](Cc1ccccc1)NC(=O)[C@H](CCC(=O)O)NC(=O)C(C)(C)NC(=O)[C@H](CCC(N)=O)NC(=O)[C@H](C)NC(=O)[C@H](CCCCNC(=O)COCCOCCNC(=O)COCCOCCNC(=O)CC[C@H](NC(=O)CCCCCCCCCCCCCCCCCCC(=O)O)C(=O)O)NC(=O)[C@H](CCC(=O)O)NC(=O)[C@H](CC(=O)O)NC(=O)[C@H](CC(C)C)NC(=O)[C@](C)(CC(C)C)NC(=O)[C@@H](NC(=O)[C@H](CO)NC(=O)[C@H](Cc1ccc(O)cc1)NC(=O)[C@H](CC(=O)O)NC(=O)[C@H](CO)NC(=O)[C@@H](NC(=O)[C@](C)(Cc1ccccc1F)NC(=O)[C@@H](NC(=O)CNC(=O)[C@H](CCC(=O)O)NC(=O)C(C)(C)NC(=O)[C@@H](N)Cc1ccc(O)cc1)[C@@H](C)O)[C@@H](C)O)[C@@H](C)CC)C(=O)N[C@@H](C)C(=O)N[C@@H](Cc1ccc(O)cc1)C(=O)N[C@@H](CC(C)C)C(=O)N[C@H](C(=O)N[C@@H](CCC(=O)O)C(=O)NCC(=O)NCC(=O)N1CCC[C@H]1C(=O)N[C@@H](CO)C(=O)N[C@@H](CO)C(=O)NCC(=O)N[C@@H](C)C(=O)N1CCC[C@H]1C(=O)N1CCC[C@H]1C(=O)N1CCC[C@H]1C(=O)N[C@@H](CO)C(N)=O)[C@@H](C)CC [Example 148] (H-Y[Aib]EGT[αMePhe(2-F)]TSDYSI[αMeL]LDEK([AEEA-AEEA-γGlu-C20 diacid])AQ[Aib]EFIAYLIEGGPSSGAPPPS-NH2)
EC50 [1]: 0.043 nM | EC50 [2]: 0.0626 nM

Structure (SMILES): CC[C@H](C)[C@H](NC(=O)[C@H](CC(C)C)NC(=O)[C@H](Cc1ccc(O)cc1)NC(=O)[C@@H]1CCCN1C(=O)[C@@H](NC(=O)[C@H](Cc1ccccc1)NC(=O)[C@H](CCC(=O)O)NC(=O)C(C)(C)NC(=O)[C@H](CCC(N)=O)NC(=O)[C@H](C)NC(=O)[C@H](CCCCNC(=O)COCCOCCNC(=O)COCCOCCNC(=O)CC[C@H](NC(=O)CCCCCCCCCCCCCCCCCCC(=O)O)C(=O)O)NC(=O)[C@H](CCC(=O)O)NC(=O)[C@H](CC(=O)O)NC(=O)[C@H](CC(C)C)NC(=O)[C@](C)(CC(C)C)NC(=O)[C@@H](NC(=O)[C@H](CO)NC(=O)[C@H](Cc1ccc(O)cc1)NC(=O)[C@H](CC(=O)O)NC(=O)[C@H](CO)NC(=O)[C@@H](NC(=O)[C@](C)(Cc1ccccc1F)NC(=O)[C@@H](NC(=O)CNC(=O)[C@H](CCC(=O)O)NC(=O)C(C)(C)NC(=O)[C@@H](N)Cc1ccc(O)cc1)[C@@H](C)O)[C@@H](C)O)[C@@H](C)CC)[C@@H](C)CC)C(=O)N[C@@H](CCC(=O)O)C(=O)NCC(=O)NCC(=O)N1CCC[C@H]1C(=O)N[C@@H](CO)C(=O)N[C@@H](CO)C(=O)NCC(=O)N[C@@H](C)C(=O)N1CCC[C@H]1C(=O)N1CCC[C@H]1C(=O)N1CCC[C@H]1C(=O)N[C@@H](CO)C(N)=O [Example 151] (H-Y[Aib]EGT[αMePhe(2-F)]TSDYSI[αMeL]LDEK([AEEA-AEEA-γGlu-C20 diacid])AQ[Aib]EFIPYLIEGGPSSGAPPPS-NH2; N-terminus assumed)
EC50 [1]: 0.41 nM | EC50 [2]: 1.6 nM

Structure (SMILES): CC[C@H](C)[C@H](NC(=O)[C@H](CC(C)C)NC(=O)[C@H](Cc1ccc(O)cc1)NC(=O)[C@H](CCC(=O)O)NC(=O)[C@@H](NC(=O)[C@H](Cc1ccccc1)NC(=O)[C@H](CCC(=O)O)NC(=O)C(C)(C)NC(=O)[C@H](CCC(N)=O)NC(=O)[C@H](C)NC(=O)[C@H](CCCCNC(=O)COCCOCCNC(=O)COCCOCCNC(=O)CC[C@H](NC(=O)CCCCCCCCCCCCCCCCCCC(=O)O)C(=O)O)NC(=O)[C@H](CCC(=O)O)NC(=O)[C@H](CC(=O)O)NC(=O)[C@H](CC(C)C)NC(=O)[C@](C)(CC(C)C)NC(=O)[C@@H](NC(=O)[C@H](CO)NC(=O)[C@H](Cc1nn[nH]n1)NC(=O)[C@H](CC(=O)O)NC(=O)[C@H](CO)NC(=O)[C@@H](NC(=O)[C@](C)(Cc1ccccc1F)NC(=O)[C@@H](NC(=O)CNC(=O)[C@H](CCC(=O)O)NC(=O)C(C)(C)NC(=O)[C@@H](N)Cc1ccc(O)cc1)[C@@H](C)O)[C@@H](C)O)[C@@H](C)CC)[C@@H](C)CC)C(=O)N[C@@H](CCC(=O)O)C(=O)NCC(=O)NCC(=O)N1CCC[C@H]1C(=O)N[C@@H](CO)C(=O)N[C@@H](CO)C(=O)NCC(=O)N[C@@H](C)C(=O)N1CCC[C@H]1C(=O)N1CCC[C@H]1C(=O)N1CCC[C@H]1C(=O)N[C@@H](CO)C(N)=O [Example 155] (H-Y[Aib]EGT[αMePhe(2-F)]TSD[Ala(1H-tetrazol-5-yl)]SI[αMeL]LDEK([AEEA-AEEA-γGlu-C20 diacid])AQ[Aib]EFIEYLIEGGPSSGAPPPS-NH2; N-terminus assumed)
EC50 [1]: 0.266 nM | EC50 [2]: 0.495 nM

Structure (SMILES): CC[C@H](C)[C@H](NC(=O)[C@H](CC(C)C)NC(=O)[C@H](Cc1ccc(O)cc1)NC(=O)[C@H](CCC(=O)O)NC(=O)[C@@H](NC(=O)[C@H](Cc1ccccc1)NC(=O)[C@H](CCC(=O)O)NC(=O)C(C)(C)NC(=O)[C@H](CCC(N)=O)NC(=O)[C@H](C)NC(=O)[C@H](CCCCNC(=O)COCCOCCNC(=O)COCCOCCNC(=O)CC[C@H](NC(=O)CCCCCCCCCCCCCCCCCCC(=O)O)C(=O)O)NC(=O)[C@H](CCC(=O)O)NC(=O)[C@H](CC(=O)O)NC(=O)[C@H](CC(C)C)NC(=O)[C@](C)(CC(C)C)NC(=O)[C@@H](NC(=O)[C@H](CO)NC(=O)[C@H](Cc1ccccn1)NC(=O)[C@H](CC(=O)O)NC(=O)[C@H](CO)NC(=O)[C@@H](NC(=O)[C@](C)(Cc1ccccc1F)NC(=O)[C@@H](NC(=O)CNC(=O)[C@H](CCC(=O)O)NC(=O)C(C)(C)NC(=O)[C@@H](N)Cc1ccc(O)cc1)[C@@H](C)O)[C@@H](C)O)[C@@H](C)CC)[C@@H](C)CC)C(=O)N[C@@H](CCC(=O)O)C(=O)NCC(=O)NCC(=O)N1CCC[C@H]1C(=O)N[C@@H](CO)C(=O)N[C@@H](CO)C(=O)NCC(=O)N[C@@H](C)C(=O)N1CCC[C@H]1C(=O)N1CCC[C@H]1C(=O)N1CCC[C@H]1C(=O)N[C@@H](CO)C(N)=O [Example 156] (H-Y[Aib]EGT[αMePhe(2-F)]TSD[2Pal]SI[αMeL]LDEK([AEEA-AEEA-γGlu-C20 diacid])AQ[Aib]EFIEYLIEGGPSSGAPPPS-NH2)
EC50 [1]: > 30 nM | EC50 [2]: 0.638 nM

Structure (SMILES): CC[C@H](C)[C@H](NC(=O)[C@H](CC(C)C)NC(=O)[C@H](Cc1ccc(O)cc1)NC(=O)[C@H](CCC(=O)O)NC(=O)[C@@H](NC(=O)[C@H](Cc1ccccc1)NC(=O)[C@H](CCC(=O)O)NC(=O)C(C)(C)NC(=O)[C@H](CCC(N)=O)NC(=O)[C@H](C)NC(=O)[C@H](CCCCNC(=O)COCCOCCNC(=O)COCCOCCNC(=O)CC[C@H](NC(=O)CCCCCCCCCCCCCCCCCCC(=O)O)C(=O)O)NC(=O)[C@H](CCC(=O)O)NC(=O)[C@H](CC(=O)O)NC(=O)[C@H](CC(C)C)NC(=O)[C@](C)(CC(C)C)NC(=O)[C@@H](NC(=O)[C@H](CO)NC(=O)[C@](C)(Cc1ccccc1)NC(=O)[C@H](CC(=O)O)NC(=O)[C@H](CO)NC(=O)[C@@H](NC(=O)[C@](C)(Cc1ccccc1F)NC(=O)[C@@H](NC(=O)CNC(=O)[C@H](CCC(=O)O)NC(=O)C(C)(C)NC(=O)[C@@H](N)Cc1ccc(O)cc1)[C@@H](C)O)[C@@H](C)O)[C@@H](C)CC)[C@@H](C)CC)C(=O)N[C@@H](CCC(=O)O)C(=O)NCC(=O)NCC(=O)N1CCC[C@H]1C(=O)N[C@@H](CO)C(=O)N[C@@H](CO)C(=O)NCC(=O)N[C@@H](C)C(=O)N1CCC[C@H]1C(=O)N1CCC[C@H]1C(=O)N1CCC[C@H]1C(=O)N[C@@H](CO)C(N)=O [Example 159] (H-Y[Aib]EGT[αMePhe(2-F)]TSD[αMeF]SI[αMeL]LDEK([AEEA-AEEA-γGlu-C20 diacid])AQ[Aib]EFIEYLIEGGPSSGAPPPS-NH2)
EC50 [1]: 4.6 nM | EC50 [2]: 0.33 nM

EC50 [1]: 0.254 nM | EC50 [2]: 4.8 nM
Structure (SMILES): CC[C@H](C)[C@H](NC(=O)[C@H](CC(C)C)NC(=O)[C@H](Cc1ccc(O)cc1)NC(=O)[C@@H](CCC(=O)O)NC(=O)[C@@H](NC(=O)[C@H](Cc1ccccc1)NC(=O)[C@@H](NC(=O)C(C)(C)NC(=O)[C@H](CCC(N)=O)NC(=O)[C@H](C)NC(=O)[C@H](CCCCNC(=O)COCCOCCNC(=O)COCCOCCNC(=O)CC[C@H](NC(=O)CC[C@H](NC(=O)CCCCCCCCCCCCCCCCCCC(=O)O)C(=O)O)C(=O)O)NC(=O)[C@H](CCC(=O)O)NC(=O)[C@H](CC(=O)O)NC(=O)[C@H](CC(C)C)NC(=O)[C@](C)(CC(C)C)NC(=O)[C@@H](NC(=O)[C@H](CO)NC(=O)[C@H](Cc1c[nH]cn1)NC(=O)[C@H](CC(=O)O)NC(=O)[C@H](CO)NC(=O)[C@@H](NC(=O)[C@](C)(Cc1ccccc1F)NC(=O)[C@@H](NC(=O)CNC(=O)[C@H](CCC(=O)O)NC(=O)C(C)(C)NC(=O)[C@@H](N)Cc1ccc(O)cc1)[C@@H](C)O)[C@@H](C)O)[C@@H](C)CC)[C@@H](C)O)[C@@H](C)CC)C(=O)N[C@@H](CCC(=O)O)C(=O)NCC(=O)NCC(=O)N1CCC[C@H]1C(=O)N[C@@H](CO)C(=O)N[C@@H](CO)C(=O)NCC(N)=O [Example 161] (H-Y[Aib]EGT[αMePhe(2-F)]TSDHSI[αMeL]LDEK([AEEA-AEEA-γGlu-γGlu-C20 diacid])AQ[Aib]TFI[dE]YLIEGGPSSG-NH2)
